In brackets after ≈: the same amount, converted by molar mass. Read-outs that look alike come from different tables or passages of the source.
How the values were obtained:
[1] = cited from earlier work
[2] = TU solubility in various solubilizers; settings: testosterone undecanoate dissolved in the named vehicle
[3] = 200 mg oral twice daily, cited from earlier work
[4] = cited from earlier work; remark: listed apart in the source
[5] = test system: absorption of cholesterol; settings: 1 g ingested, meal containing 500 mg of cholesterol; cited from earlier work
plasma lipids = settings: interesterified with margarine, mild hypercholesteremia; cited from earlier work

Row | Structure (SMILES) | TU Solubility (mg/g) at 37 C. [2] [mg/g] | also measured
1 | CC(C)CCC[C@@H](C)[C@H]1CC[C@H]2[C@@H]3CC=C4C[C@@H](O)CC[C@]4(C)[C@H]3CC[C@]12C [Cholesterol] |  | water solubility [1]: ~0.01 µg/mL (≈ 0.0259 µM)
2 | CCCCCCCC/C=C\CCCCCCCC(=O)OCC [Crodamol EO (ethyl oleate), ethyl oleate] | 221 | 
3 | C[C@]12CC[C@H]3[C@@H](CCC4=CC(=O)CC[C@@]43C)[C@@H]1CC[C@@H]2O [micronized testosterone, testosterone] |  | time of total serum testosterone within the normal range ([3]; two doses): greater than 12 hours; time at desired level of serum testosterone for each peak [3]: about 4 hours
4 | CCCCCC[C@@H](O)C/C=C\CCCCCCCC(=O)O [Ricinoleic acid] | 244 | 
5 | CCCCCCCCCCCCCC(=O)OC(C)C [Crodamol IPM (isopropyl myristate), isopropyl myristate] | 295 | 
6 | CCCCCCCCCCC(=O)O[C@H]1CC[C@H]2[C@@H]3CCC4=CC(=O)CC[C@]4(C)[C@H]3CC[C@]12C [TU, testosterone undecanoate] |  | oral bioavailability ([4]; dosed with normal fat meal (30% calories from fat), solution of TU in oleic acid): about 7%; fraction absorbed via the intestinal lymphatic system ([4]; in vivo): More than 80%
7 | C[C@]12CC[C@H]3[C@@H](CCC4=CC(=O)CC[C@@]43C)[C@@H]1CC[C@@H]2O [testosterone] |  | oral bioavailability ([4]; dosed as a suspension in oil): 1%; circulating fraction bound to sex hormone binding globulin and albumin ([4]; in vivo): > 98%; plasma half-life ([4]; in vivo): 10 to 30 min
8 | CC[C@H](CC[C@@H](C)[C@H]1CC[C@H]2[C@@H]3CC=C4C[C@@H](O)CC[C@]4(C)[C@H]3CC[C@]12C)C(C)C [ß-sitosterol] |  | reduction of absorption of cholesterol [5]: 42%
9 | CN1CCCC1=O [N-methyl pyrolidone] | >500 | 
10 | CCCCCCCC/C=C\CCCCCCCC(=O)O [Oleic acid] | 405 | 
11 | CCCCCCCCCCCCCCCC(=O)OC(C)C [Crodamol IPP (isopropyl palmitate), isopropyl palmitate] | 215 | 
12 | CC[C@H](CC[C@@H](C)[C@H]1CC[C@H]2[C@@H]3CC[C@H]4C[C@@H](O)CC[C@]4(C)[C@H]3CC[C@]12C)C(C)C [sitostanol] |  | mean 1-year reduction in plasma cholesterol (plasma lipids): 10.2%
13 | CCCCC/C=C\C/C=C\CCCCCCCC(=O)OCC [Ethyl linoleate] | 230 | 
14 | Cc1c(C)c2c(c(C)c1O)CCC(C)(CCCC(C)CCCC(C)CCCC(C)C)O2 (racemic) [dl-alpha-tocopherol] | 527 | 
15 | CCOCCOCCO [Transcutol HP, diethylene glycol monoethyl ether] | 180 | 
16 | CCCCCCCC/C=C\CCCCCCCC(=O)OCC(COC(=O)CCCCCCC/C=C\CCCCCCCC)OC(=O)CCCCCCC/C=C\CCCCCCCC [Glyceryl trioleate (Capmul GTO), Glyceryl trioleate] | 154 | 
17 | CCCCC/C=C\C/C=C\CCCCCCCC(=O)O [Linoleic acid] | 391 | 
18 | CC/C=C\C/C=C\C/C=C\CCCCCCCC(=O)O [Linolenic acid] | 162 | 
